Measured values published in ChEMBL document CHEMBL4346657, “Anticancer activity, dual prooxidant/antioxidant effect and apoptosis induction profile of new bichalcophene-5-carboxamidines” (Eur J Med Chem, 2019).
The source made the active and inactive calls. The rule behind the calls is not given here.

Columns and labels:
[1] = system: HCT-116; assay: Antiproliferative activity against human HCT116 cells assessed as growth inhibition after 48 hrs by sulforhodamine B assay; format: functional; conditions: HCT-116, 48 h
[2] = system: NCI-H322M; assay: Antiproliferative activity against human NCI-H322M cells assessed as growth inhibition after 48 hrs by sulforhodamine B assay; format: functional
[3] = system: MCF7; assay: Antiproliferative activity against human MCF7 cells assessed as growth inhibition after 48 hrs by sulforhodamine B assay; format: functional; conditions: MCF7, 48 h
[4] = system: Erythrocyte; assay: Haemolytic activity in human erythrocytes assessed as induction of hemolysis at 0.625 mM after 30 mins relative to H202; format: cell-based; conditions: erythrocyte, 0.5 h, 625 µM
[5] = Haemolytic activity in human erythrocytes assessed as induction of hemolysis at 10 mM after 30 mins relative to H202; format: cell-based, Erythrocyte; conditions: read-out: Activity
[6] = system: HCT-116; assay: […] in CDK1 mRNA expression in human HCT116 cells at 100 nM after 6 hrs hrs by SYBR green dye-based qRT-PCR analysis relative to control; format: functional
[7] = Antioxidant activity assessed as DPPH radical scavenging activity incubated in dark for 30 mins by spectrophotometric method relative to control; format: functional; parameters: concentration or dose not given beside the values
[8] = system: HCC 2998; assay: Antiproliferative activity against human HCC2998 cells assessed as growth inhibition after 48 hrs by sulforhodamine B assay; format: functional; conditions: HCC 2998, 48 h
[9] = system: SF-539; assay: Antiproliferative activity against human SF539 cells assessed as growth inhibition after 48 hrs by sulforhodamine B assay; format: functional; conditions: SF-539, 48 h
[10] = system: MOLT-4; assay: Antiproliferative activity against human MOLT4 cells assessed as growth inhibition after 48 hrs by sulforhodamine B assay; format: functional; conditions: MOLT-4, 48 h
[11] = system: Panel NCI-60 (60 carcinoma cell lines); assay: Antiproliferative activity against human NCI60 cells assessed as growth inhibition at 10 uM after 48 hrs by sulforhodamine B assay; format: functional; conditions: read-out: GI
[12] = system: SK-MEL-28; assay: Antiproliferative activity against human SK-MEL-28 cells assessed as growth inhibition after 48 hrs by sulforhodamine B assay; format: functional; conditions: SK-MEL-28, 48 h
[13] = system: NCI-H226; assay: Antiproliferative activity against human NCI-H226 cells assessed as growth inhibition after 48 hrs by sulforhodamine B assay; format: functional; conditions: NCI-H226, 48 h
[14] = system: UACC-257; assay: Antiproliferative activity against human UACC257 cells assessed as growth inhibition after 48 hrs by sulforhodamine B assay; format: functional; conditions: UACC-257, 48 h
[15] = system: SK-MEL-2; assay: Antiproliferative activity against human SK-MEL-2 cells assessed as growth inhibition after 48 hrs by sulforhodamine B assay; format: functional; conditions: SK-MEL-2, 48 h
[16] = system: SNB-19; assay: Antiproliferative activity against human SNB19 cells assessed as growth inhibition after 48 hrs by sulforhodamine B assay; format: functional; conditions: SNB-19, 48 h
[17] = system: 786-0; assay: Antiproliferative activity against human 786-0 cells assessed as growth inhibition after 48 hrs by sulforhodamine B assay; format: functional; conditions: 786-0, 48 h
[18] = Haemolytic activity in human erythrocytes assessed as induction of hemolysis at 5 mM after 30 mins relative to H202; format: cell-based, Erythrocyte; conditions: read-out: Activity
[19] = system: TK-10; assay: Antiproliferative activity against human TK10 cells assessed as growth inhibition after 48 hrs by sulforhodamine B assay; format: functional; conditions: TK-10, 48 h
[20] = system: MDA-MB-468; assay: Antiproliferative activity against human MDA-MB-468 cells assessed as growth inhibition after 48 hrs by sulforhodamine B assay; format: functional; conditions: MDA-MB-468, 48 h
[21] = Pro-oxidant activity assessed as increase in bleomycin-Fe2+ induced calf thymus DNA damage at 2 mM after 1 hr by thiobarbituric acid based absorbance analysis
[22] = system: CCRF-CEM; assay: Antiproliferative activity against human CCRF-CEM cells assessed as growth inhibition after 48 hrs by sulforhodamine B assay; format: functional
[23] = system: K562; assay: Antiproliferative activity against human K562 cells assessed as growth inhibition after 48 hrs by sulforhodamine B assay; format: functional, cell-based; conditions: K562, 48 h; for IC50: read-out: IC50
[24] = system: COLO 205; assay: Antiproliferative activity against human COLO205 cells assessed as growth inhibition after 48 hrs by sulforhodamine B assay; format: functional; conditions: COLO 205, 48 h
[25] = system: WI-38; assay: Cytotoxicity activity against human WI38 cells assessed as reduction in cell viability measured after 48 hrs by MTT assay; format: cell-based; conditions: WI-38, 48 h
[26] = system: NCI-H522; assay: Antiproliferative activity against human NCI-H522 cells assessed as growth inhibition after 48 hrs by sulforhodamine B assay; format: functional; conditions: NCI-H522, 48 h
[27] = system: SNB-75; assay: Antiproliferative activity against human SNB75 cells assessed as growth inhibition after 48 hrs by sulforhodamine B assay; format: functional; conditions: SNB-75, 48 h
[28] = Antioxidant activity assessed as ABTS radical scavenging activity by spectrophotometric method relative to ascorbic acid; format: functional
[29] = system: A549; assay: Antiproliferative activity against human A549/ATCC cells assessed as growth inhibition after 48 hrs by sulforhodamine B assay; format: functional; conditions: A549, 48 h
[30] = system: SK-MEL-5; assay: Antiproliferative activity against human SK-MEL-5 cells assessed as growth inhibition after 48 hrs by sulforhodamine B assay; format: functional; conditions: SK-MEL-5, 48 h
[31] = system: RPMI-8226; assay: Antiproliferative activity against human RPMI8226 cells assessed as growth inhibition after 48 hrs by sulforhodamine B assay; format: functional; conditions: RPMI-8226, 48 h
[32] = system: IGROV-1; assay: Antiproliferative activity against human IGROV1 cells assessed as growth inhibition after 48 hrs by sulforhodamine B assay; format: functional; conditions: IGROV-1, 48 h
[33] = system: BT-549; assay: Antiproliferative activity against human BT549 cells assessed as growth inhibition after 48 hrs by sulforhodamine B assay; format: functional; conditions: BT-549, 48 h
[34] = system: MDA-MB-231; assay: Antiproliferative activity against human MDA-MB-231/ATCC cells assessed as growth inhibition after 48 hrs by sulforhodamine B assay; format: functional; conditions: MDA-MB-231, 48 h
[35] = system: NCI/ADR-RES; assay: Antiproliferative activity against human NCI-ADR-RES cells assessed as growth inhibition after 48 hrs by sulforhodamine B assay; format: functional
[36] = system: Erythrocyte; assay: Haemolytic activity in human erythrocytes assessed as induction of hemolysis at 1.25 mM after 30 mins relative to H202; format: cell-based; conditions: erythrocyte, 0.5 h, 1250 µM
[37] = system: Hs-578T; assay: Antiproliferative activity against human Hs578T cells assessed as growth inhibition after 48 hrs by sulforhodamine B assay; format: functional
[38] = system: U-251; assay: Antiproliferative activity against human U251 cells assessed as growth inhibition after 48 hrs by sulforhodamine B assay; format: functional; conditions: U-251, 48 h
[39] = system: MDA-MB-435; assay: Antiproliferative activity against human MDA-MB-435 cells assessed as growth inhibition after 48 hrs by sulforhodamine B assay; format: functional; conditions: MDA-MB-435, 48 h
[40] = system: Malme-3M; assay: Antiproliferative activity against human MALME-3M cells assessed as growth inhibition after 48 hrs by sulforhodamine B assay; format: functional
[41] = system: OVCAR-4; assay: Antiproliferative activity against human OVCAR4 cells assessed as growth inhibition after 48 hrs by sulforhodamine B assay; format: functional; conditions: OVCAR-4, 48 h
[42] = system: SW-620; assay: Antiproliferative activity against human SW620 cells assessed as growth inhibition after 48 hrs by sulforhodamine B assay; format: functional; conditions: SW-620, 48 h

Structure (SMILES): COc1cc(OC)cc(-c2ccc(-c3ccc(C(=N)N)o3)o2)c1
- GI50 [1]: 2510 nM
- GI50 [2]: 2860 nM
- GI50 [3]: 1800 nM
- Activity [4]: Non-Toxic
- hemolysis at 0.5 h, 10000 µM [5]: 19.3%
- fold change (FC) [6]: 1.24
- inhibition [7]: 31%
- GI50 [8]: 2050 nM
- GI50 [9]: 1830 nM
- GI50 [10]: 2440 nM
- inhibition of growth at 10 µM [11]: 55.9%
- GI50 [12]: 1820 nM
- GI50 [13]: 2260 nM
- GI50 [14]: 2410 nM
- GI50 [15]: 2440 nM
- GI50 [16]: 3020 nM
- GI50 [17]: 4150 nM
- hemolysis at 0.5 h, 5000 µM [18]: 7.5%
- GI50 [19]: 13400 nM
- GI50 [20]: 2410 nM
- Activity [21]: Active
- GI50 [22]: 2720 nM
- GI50 [23]: 1980 nM
- IC50 [23]: 1890 nM
- GI50 [24]: 1840 nM
- IC50 [25]: 81600 nM
- GI50 [26]: 2300 nM
- GI50 [27]: 2200 nM
- fold change (FC) [28]: 0.4
- GI50 [29]: 3780 nM
- GI50 [30]: 1950 nM
- GI50 [31]: 2250 nM
- GI50 [32]: 2970 nM
- GI50 [33]: 6910 nM
- GI50 [34]: 2350 nM
- GI50 [35]: 8260 nM
- Activity [36]: Non-Toxic
- GI50 [37]: 8120 nM
- GI50 [38]: 2450 nM
- GI50 [39]: 1520 nM
- GI50 [40]: 2040 nM
- GI50 [41]: 3510 nM
- GI50 [42]: 1880 nM

Structure (SMILES): N=C(N)c1ccc(-c2ccc(-c3cc(Cl)cc(Cl)c3)o2)o1
- GI50 [1]: 1210 nM
- GI50 [2]: 1620 nM
- GI50 [3]: 1350 nM
- Activity [4]: Non-Toxic
- hemolysis at 0.5 h, 10000 µM [5]: 89.3%
- fold change (FC) [6]: 0.54
- inhibition [7]: 15.7%
- GI50 [8]: 1840 nM
- GI50 [9]: 1720 nM
- GI50 [10]: 1690 nM
- inhibition of growth at 10 µM [11]: -57.8%
- GI50 [12]: 1730 nM
- GI50 [13]: 2200 nM
- GI50 [14]: 2050 nM
- GI50 [15]: 2020 nM
- GI50 [16]: 1990 nM
- GI50 [17]: 1780 nM
- hemolysis at 0.5 h, 5000 µM [18]: 57.1%
- GI50 [19]: 1860 nM
- GI50 [20]: 2230 nM
- Activity [21]: Active
- GI50 [22]: 1870 nM
- IC50 [23]: 1300 nM
- GI50 [24]: 1310 nM
- IC50 [25]: 16000 nM
- GI50 [26]: 1730 nM
- GI50 [27]: 1410 nM
- fold change (FC) [28]: 0.2
- GI50 [29]: 1950 nM
- GI50 [30]: 1860 nM
- GI50 [31]: 2130 nM
- GI50 [32]: 1730 nM
- GI50 [33]: 1970 nM
- GI50 [34]: 1850 nM
- GI50 [35]: 1840 nM
- Activity [36]: Non-Toxic
- GI50 [37]: 2220 nM
- GI50 [38]: 1820 nM
- GI50 [39]: 1610 nM
- GI50 [40]: 1840 nM
- GI50 [41]: 1850 nM
- GI50 [42]: 1680 nM
